According to patent publication US10865216B2, “Tricyclic Gyrase inhibitors” (MERCK SHARP & DOHME CORP., priority 2012, dated 2020):
≈ marks a conversion by molar mass, not a printed value.

system: S. aureus ATCC 13709; assay: MIC, S. aureus ATCC 13709; type: cell-based; details: S. aureus; Alamar Blue read after overnight incubation at 35° C.

SMILES	MIC Sa [µg/mL]
CNc1cc(F)cc2c1[nH]c1nc(Oc3cnc(N)nc3)nc(N3CC4CC(N)C4C3)c12 (centres unmarked) [Compound 4.184]	≤0.5

same assay, conditions: Staphylococcus aureus, ATCC13709, S. aureus; Alamar Blue read after overnight incubation at 35° C.; read-out: MIC Sa

SMILES	MIC [µg/mL]
CNc1cccc2c1[nH]c1nc(Oc3cncnc3)cc(N3CC[C@@H](N)C3)c12 [Compound 3.4]	0.5 (≈ 1.33 µM)
CNc1cccc2c1[nH]c1nc(Sc3cnc4cccnc4c3)nc(N3CC4CCCNC4C3)c12 (centres unmarked) [Compound 1.28]	4 (≈ 8.29 µM)
CNc1cccc2c1[nH]c1nc(Oc3cnc(C)nc3)cc(N3CC4C(C3)C4NCC3CC3)c12 (centres unmarked) [Compound 3.14]	≤ 0.5
CNc1ncnc2c1[nH]c1nc(Oc3cncnc3)nc(Oc3cncnc3)c12 [Compound 7.10]	> 64
CNc1cccc2c1[nH]c1nc(Oc3cnc(C)nc3)cc(N3CC[C@@H](NCCC#N)C3)c12 [Compound 3.10]	32 (≈ 72.3 µM)
CNc1cccc2c1[nH]c1nc(Sc3cncc(S(N)(=O)=O)c3)nc(N3CC4C(N)C4C3)c12 (centres unmarked) [Compound 1.41]	4 (≈ 8.29 µM)
CNc1cccc2c1[nH]c1nc(Sc3cnc4ccc[n+]([O-])c4c3)nc(N3C[C@@H]4[C@@H](CN)[C@@H]4C3)c12 [Compound 1.18]	≤ 0.5
CNc1cc(F)cc2c1[nH]c1nc(Oc3cnc(C)nc3)nc(-c3cncnc3)c12 [Compound 4.449]	≤ 0.5
CNc1nccc2c1[nH]c1nc(Oc3cncnc3)nc(N3CC[C@@H](N)C3)c12 [Compound 7.02]	> 64
CNc1cccc2c1[nH]c1nc(Oc3cncnc3)cc(N3CC(N)C4(CC4)C3)c12 (centres unmarked) [Compound 3.45]	≤ 0.5
CNc1cccc2c1[nH]c1nc(Sc3cnc4cccnc4c3)nc(N3CCC(C(O)c4cccs4)CC3)c12 (centres unmarked) [Compound 1.70]	1 (≈ 1.81 µM)
CNc1cc(F)cc2c1[nH]c1nc(Oc3cnc(C(C)(C)C)nc3)nc(N3CC4CC3C[C@H]4N)c12 (some centres unmarked) [Compound 4.441]	≤ 0.5
CNc1cccc2c1[nH]c1nc(Oc3cncc(C#N)c3)cc(N3C[C@@H](NC)C4(CC4)C3)c12 [Compound 3.44]	8 (≈ 18.2 µM)
CNc1cccc2c1[nH]c1nc(Oc3ccc[n+]([O-])c3)cc(Oc3cnc(C)nc3)c12 [Compound 3.39]	2 (≈ 4.83 µM)
CNc1cccc2c1[nH]c1nc(Oc3cncc(F)c3)cc(N3CC4CNC4C3)c12 (centres unmarked) [Compound 3.7]	1 (≈ 2.47 µM)
CNc1ncnc2c1[nH]c1nc(Oc3cnc(C)nc3)nc(N3CCC(CN)C3)c12 (centres unmarked) [Compound 7.12]	> 64

same assay, conditions: Staphylococcus aureus, ATCC13709, Table 16; new R4 substituents; read-out: SA MIC

SMILES	MIC [µg/mL]
CNc1cc(F)cc2c1[nH]c1nc(Oc3cnc(C)nc3)nc(N3CCC(C)(N)C3)c12 (centres unmarked)	≤ 0.5

same assay, conditions: Table 12; Z is C and connected to R4

SMILES	SA MIC [µg/mL]
CNc1cc(F)c2c3c1[nH]c1nc(Oc4cnc(C)nc4)nc(c13)-c1ccccc1NC2	≤ 0.5

same assay, conditions: Table 18, Sa

SMILES	MIC Sa [µg/mL]
CNc1cc(F)cc2c1[nH]c1nc(Oc3cnc(C(C)C#N)nc3)nc(N3C[C@H]4C[C@@H]3C[C@H]4N)c12 (some centres unmarked) [Compound 10.91]	4 (≈ 8.45 µM)
CNc1cc(F)cc2c1[nH]c1nc(Cc3cnn(C)c3)nc(N3C[C@H]4C[C@@H]3C[C@H]4N)c12 [Compound 10.47]	1 (≈ 2.38 µM)
CNc1cc(F)cc2c1[nH]c1nc(Oc3ccc4cncnc4c3)nc(N3C[C@H]4C[C@@H]3C[C@H]4N)c12 [Compound 10.96]	≤ 0.5
CNc1cc(F)cc2c1[nH]c1nc(Nc3cnc4ccnn4c3)nc(N3C[C@H]4C[C@@H]3C[C@H]4N)c12 [Compound 10.45]	≤ 0.5
CNc1cc(F)cc2c1[nH]c1nc(Oc3ccc([C@@H](C)O)nc3)nc(N3CC4[C@H](N)CC4(C)C3)c12 (some centres unmarked) [Compound 10.76]	≤ 0.5
CNc1cc(F)c(Cl)c2c1[nH]c1nc(Oc3cnc4ccnn4c3)nc(N3CC4(CC[C@]4(C)N)C3)c12 [Compound 10.90]	≤ 0.5
CNc1cc(F)c(F)c2c1[nH]c1nc(Oc3cnc(C(C)C#N)nc3)nc(N3C[C@H]4C[C@@H]3C[C@H]4N)c12 (some centres unmarked) [Compound 10.95]	≤ 0.5
CNc1cc(F)cc2c1[nH]c1nc(Oc3ccc4ccnn4c3)nc(N3C[C@H]4C[C@@H]3C[C@H]4N)c12 [Compound 10.50]	≤ 0.5
CNc1cc(F)cc2c1[nH]c1nc(Oc3cnc4ccnn4c3)nc(N3C[C@@H]4[C@H](N)C[C@]4(C)C3)c12 [Compound 10.18]	≤ 0.5

system: E. coli ATCC 25922; assay: MIC, E. coli ATCC 25922; type: cell-based; details: E. coli; Alamar Blue read after overnight incubation at 35° C.

SMILES	MIC Ec [µg/mL]
CNc1cc(F)cc2c1[nH]c1nc(Oc3cnc(N)nc3)nc(N3CC4CC(N)C4C3)c12 (centres unmarked) [Compound 4.184]	1 (≈ 2.3 µM)

same assay, conditions: Escherichia coli, ATCC25922, E. coli; Alamar Blue read after overnight incubation at 35° C.; read-out: MIC Ec

SMILES	MIC [µg/mL]
CNc1cccc2c1[nH]c1nc(Oc3cncnc3)cc(N3CC[C@@H](N)C3)c12 [Compound 3.4]	≤ 0.5
CNc1cccc2c1[nH]c1nc(Sc3cnc4cccnc4c3)nc(N3CC4CCCNC4C3)c12 (centres unmarked) [Compound 1.28]	16 (≈ 33.2 µM)
CNc1cccc2c1[nH]c1nc(Oc3cnc(C)nc3)cc(N3CC4C(C3)C4NCC3CC3)c12 (centres unmarked) [Compound 3.14]	2 (≈ 4.39 µM)
CNc1ncnc2c1[nH]c1nc(Oc3cncnc3)nc(Oc3cncnc3)c12 [Compound 7.10]	> 64
CNc1cccc2c1[nH]c1nc(Oc3cnc(C)nc3)cc(N3CC[C@@H](NCCC#N)C3)c12 [Compound 3.10]	> 64
CNc1cccc2c1[nH]c1nc(Sc3cncc(S(N)(=O)=O)c3)nc(N3CC4C(N)C4C3)c12 (centres unmarked) [Compound 1.41]	8 (≈ 16.6 µM)
CNc1cccc2c1[nH]c1nc(Sc3cnc4ccc[n+]([O-])c4c3)nc(N3C[C@@H]4[C@@H](CN)[C@@H]4C3)c12 [Compound 1.18]	2 (≈ 4.13 µM)
CNc1cc(F)cc2c1[nH]c1nc(Oc3cnc(C)nc3)nc(-c3cncnc3)c12 [Compound 4.449]	> 16
CNc1nccc2c1[nH]c1nc(Oc3cncnc3)nc(N3CC[C@@H](N)C3)c12 [Compound 7.02]	32 (≈ 84.8 µM)
CNc1cccc2c1[nH]c1nc(Oc3cncnc3)cc(N3CC(N)C4(CC4)C3)c12 (centres unmarked) [Compound 3.45]	≤ 0.5
CNc1cccc2c1[nH]c1nc(Sc3cnc4cccnc4c3)nc(N3CCC(C(O)c4cccs4)CC3)c12 (centres unmarked) [Compound 1.70]	> 32
CNc1cc(F)cc2c1[nH]c1nc(Oc3cnc(C(C)(C)C)nc3)nc(N3CC4CC3C[C@H]4N)c12 (some centres unmarked) [Compound 4.441]	≤ 0.5
CNc1cccc2c1[nH]c1nc(Oc3cncc(C#N)c3)cc(N3C[C@@H](NC)C4(CC4)C3)c12 [Compound 3.44]	16 (≈ 36.4 µM)
CNc1cccc2c1[nH]c1nc(Oc3ccc[n+]([O-])c3)cc(Oc3cnc(C)nc3)c12 [Compound 3.39]	64 (≈ 154 µM)
CNc1cccc2c1[nH]c1nc(Oc3cncc(F)c3)cc(N3CC4CNC4C3)c12 (centres unmarked) [Compound 3.7]	4 (≈ 9.89 µM)
CNc1ncnc2c1[nH]c1nc(Oc3cnc(C)nc3)nc(N3CCC(CN)C3)c12 (centres unmarked) [Compound 7.12]	> 64

same assay, conditions: Escherichia coli, ATCC25922, Table 16; new R4 substituents; EC8 not defined; read-out: EC8 MIC

SMILES	MIC [µg/mL]
CNc1cc(F)cc2c1[nH]c1nc(Oc3cnc(C)nc3)nc(N3CCC(C)(N)C3)c12 (centres unmarked)	≤ 0.5

same assay, conditions: Table 12; Z is C and connected to R4; EC8 not defined

SMILES	EC8 MIC [µg/mL]
CNc1cc(F)c2c3c1[nH]c1nc(Oc4cnc(C)nc4)nc(c13)-c1ccccc1NC2	≤ 0.5

same assay, conditions: Table 18, Ec

SMILES	MIC Ec [µg/mL]
CNc1cc(F)cc2c1[nH]c1nc(Oc3cnc(C(C)C#N)nc3)nc(N3C[C@H]4C[C@@H]3C[C@H]4N)c12 (some centres unmarked) [Compound 10.91]	> 16
CNc1cc(F)cc2c1[nH]c1nc(Cc3cnn(C)c3)nc(N3C[C@H]4C[C@@H]3C[C@H]4N)c12 [Compound 10.47]	8 (≈ 19 µM)
CNc1cc(F)cc2c1[nH]c1nc(Oc3ccc4cncnc4c3)nc(N3C[C@H]4C[C@@H]3C[C@H]4N)c12 [Compound 10.96]	≤ 0.5
CNc1cc(F)cc2c1[nH]c1nc(Nc3cnc4ccnn4c3)nc(N3C[C@H]4C[C@@H]3C[C@H]4N)c12 [Compound 10.45]	≤ 0.5
CNc1cc(F)cc2c1[nH]c1nc(Oc3ccc([C@@H](C)O)nc3)nc(N3CC4[C@H](N)CC4(C)C3)c12 (some centres unmarked) [Compound 10.76]	≤ 0.5
CNc1cc(F)c(Cl)c2c1[nH]c1nc(Oc3cnc4ccnn4c3)nc(N3CC4(CC[C@]4(C)N)C3)c12 [Compound 10.90]	≤ 0.5
CNc1cc(F)c(F)c2c1[nH]c1nc(Oc3cnc(C(C)C#N)nc3)nc(N3C[C@H]4C[C@@H]3C[C@H]4N)c12 (some centres unmarked) [Compound 10.95]	≤ 0.5
CNc1cc(F)cc2c1[nH]c1nc(Oc3ccc4ccnn4c3)nc(N3C[C@H]4C[C@@H]3C[C@H]4N)c12 [Compound 10.50]	≤ 0.5
CNc1cc(F)cc2c1[nH]c1nc(Oc3cnc4ccnn4c3)nc(N3C[C@@H]4[C@H](N)C[C@]4(C)C3)c12 [Compound 10.18]	≤ 0.5
